# In PubChem BioAssay AID1963982 (Molecular Pharmacology Branch, DTP, NCI, 2024):
# Test system: 313798-341-R-J2-PDC spheroids, viability
# Test: Anticancer human tumor 313798-341-R-J2-PDC patient-derived cervical squamous cell carcinoma cell line growth inhibition [PI3K]
# Conditions: spheroids with HUVEC and MSC; for IC50: curve of first compound; for viability, T/C: stronger effect = lower value
# Method in brief: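 Spheroid viability read-out. Co-cultures contained the tumor line plus HUVEC and human MSCs. Each agent was paired with a PI3K inhibitor (inavolisib, alpelisib, duvelisib, copanlisib) across half-log dilutions starting at clinical Cmax, or at 10 microM when Cmax was unknown.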
# [1] = second compound 0.0316 µM, first compound 0.0316 µM
# [2] = second compound 0.0316 µM, first compound 0.1 µM
# [3] = second compound 0.1 µM, first compound 0.0316 µM
# [4] = second compound 0.1 µM, first compound 0.1 µM
# [5] = second compound 0.316 µM, first compound 0.0316 µM
# [6] = second compound 0.316 µM, first compound 0.1 µM
# [7] = second compound 1 µM, first compound 0.0316 µM
# [8] = second compound 1 µM, first compound 0.1 µM
# [9] = second compound 3.16 µM, first compound 0.0316 µM
# [10] = second compound 3.16 µM, first compound 0.1 µM
# [11] = second compound 10 µM, first compound 0.0316 µM
# [12] = second compound 10 µM, first compound 0.1 µM
# 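Further: spheroids exposed to compounds for seven days.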
# 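Wherever viability, T/C is given: 100% = DMSO vehicle control viability.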
compound,measurement,setting,value
CC(C)n1nc(-c2ccc3oc(N)nc3c2)c2c(N)ncnc21 + Cc1nc(NC(=O)N2CCCC2C(N)=O)sc1-c1ccnc(C(C)(C)C(F)(F)F)c1,IC50,second compound 0.0316 µM,59 nM
same,IC50,second compound 0.1 µM,59.6 nM
same,IC50,second compound 0.316 µM,46.6 nM
same,IC50,second compound 1 µM,25.5 nM
same,IC50,second compound 3.16 µM,4.22 nM
same,IC50,second compound 10 µM,< 0.316 nM
same,"viability, T/C","second compound 0.0316 µM, first compound 0.000316 µM",91.6%
same,"viability, T/C","second compound 0.0316 µM, first compound 0.001 µM",96%
same,"viability, T/C","second compound 0.0316 µM, first compound 0.00316 µM",107%
same,"viability, T/C","second compound 0.0316 µM, first compound 0.01 µM",94.6%
same,"viability, T/C",[1],67.5%
same,"viability, T/C",[2],35.3%
same,"viability, T/C","second compound 0.1 µM, first compound 0.000316 µM",100%
same,"viability, T/C","second compound 0.1 µM, first compound 0.001 µM",93.6%
same,"viability, T/C","second compound 0.1 µM, first compound 0.00316 µM",96.9%
same,"viability, T/C","second compound 0.1 µM, first compound 0.01 µM",91.1%
same,"viability, T/C",[3],66.5%
same,"viability, T/C",[4],36.5%
same,"viability, T/C","second compound 0.316 µM, first compound 0.000316 µM",98.6%
same,"viability, T/C","second compound 0.316 µM, first compound 0.001 µM",91.6%
same,"viability, T/C","second compound 0.316 µM, first compound 0.00316 µM",97.8%
same,"viability, T/C","second compound 0.316 µM, first compound 0.01 µM",76.8%
same,"viability, T/C",[5],56.6%
same,"viability, T/C",[6],39%
same,"viability, T/C","second compound 1 µM, first compound 0.000316 µM",92%
same,"viability, T/C","second compound 1 µM, first compound 0.001 µM",84.2%
same,"viability, T/C","second compound 1 µM, first compound 0.00316 µM",77.3%
same,"viability, T/C","second compound 1 µM, first compound 0.01 µM",64.4%
same,"viability, T/C",[7],46%
same,"viability, T/C",[8],30%
same,"viability, T/C","second compound 3.16 µM, first compound 0.000316 µM",63.9%
same,"viability, T/C","second compound 3.16 µM, first compound 0.001 µM",55.1%
same,"viability, T/C","second compound 3.16 µM, first compound 0.00316 µM",54.2%
same,"viability, T/C","second compound 3.16 µM, first compound 0.01 µM",43.5%
same,"viability, T/C",[9],34.5%
same,"viability, T/C",[10],21.4%
same,"viability, T/C","second compound 10 µM, first compound 0.000316 µM",35.2%
same,"viability, T/C","second compound 10 µM, first compound 0.001 µM",32.2%
same,"viability, T/C","second compound 10 µM, first compound 0.00316 µM",30.9%
same,"viability, T/C","second compound 10 µM, first compound 0.01 µM",25.1%
same,"viability, T/C",[11],23.9%
same,"viability, T/C",[12],14.4%
CC1(C)CCC(CN2CCN(c3ccc(C(=O)NS(=O)(=O)c4ccc(NCC5CCOCC5)c([N+](=O)[O-])c4)c(Oc4cnc5[nH]ccc5c4)c3)CC2)=C(c2ccc(Cl)cc2)C1 + Cc1nc(NC(=O)N2CCCC2C(N)=O)sc1-c1ccnc(C(C)(C)C(F)(F)F)c1,IC50,second compound 0.0316 µM,5810 nM
same,IC50,second compound 0.1 µM,5800 nM
same,IC50,second compound 0.316 µM,5320 nM
same,IC50,second compound 1 µM,4220 nM
same,IC50,second compound 3.16 µM,1710 nM
same,IC50,second compound 10 µM,< 31.6 nM
same,"viability, T/C",[1],102%
same,"viability, T/C",[2],115%
same,"viability, T/C","second compound 0.0316 µM, first compound 0.316 µM",104%
same,"viability, T/C","second compound 0.0316 µM, first compound 1 µM",101%
same,"viability, T/C","second compound 0.0316 µM, first compound 3.16 µM",84.4%
same,"viability, T/C","second compound 0.0316 µM, first compound 10 µM",19.3%
same,"viability, T/C",[3],115%
same,"viability, T/C",[4],101%
same,"viability, T/C","second compound 0.1 µM, first compound 0.316 µM",110%
same,"viability, T/C","second compound 0.1 µM, first compound 1 µM",97.9%
same,"viability, T/C","second compound 0.1 µM, first compound 3.16 µM",85%
same,"viability, T/C","second compound 0.1 µM, first compound 10 µM",19.8%
same,"viability, T/C",[5],111%
same,"viability, T/C",[6],103%
same,"viability, T/C","second compound 0.316 µM, first compound 0.316 µM",112%
same,"viability, T/C","second compound 0.316 µM, first compound 1 µM",107%
same,"viability, T/C","second compound 0.316 µM, first compound 3.16 µM",75.7%
same,"viability, T/C","second compound 0.316 µM, first compound 10 µM",18.7%
same,"viability, T/C",[7],91.5%
same,"viability, T/C",[8],104%
same,"viability, T/C","second compound 1 µM, first compound 0.316 µM",97.2%
same,"viability, T/C","second compound 1 µM, first compound 1 µM",90.7%
same,"viability, T/C","second compound 1 µM, first compound 3.16 µM",60.8%
same,"viability, T/C","second compound 1 µM, first compound 10 µM",17.9%
same,"viability, T/C",[9],69.3%
same,"viability, T/C",[10],66.7%
same,"viability, T/C","second compound 3.16 µM, first compound 0.316 µM",63.9%
same,"viability, T/C","second compound 3.16 µM, first compound 1 µM",59.3%
same,"viability, T/C","second compound 3.16 µM, first compound 3.16 µM",40.2%
same,"viability, T/C","second compound 3.16 µM, first compound 10 µM",18.3%
same,"viability, T/C",[11],38.6%
same,"viability, T/C",[12],34.1%
same,"viability, T/C","second compound 10 µM, first compound 0.316 µM",38.1%
same,"viability, T/C","second compound 10 µM, first compound 1 µM",35.7%
same,"viability, T/C","second compound 10 µM, first compound 3.16 µM",33%
same,"viability, T/C","second compound 10 µM, first compound 10 µM",15.1%
